# Data: PubChem BioAssay (NCI)
#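 Five compound concentrations were applied to cells in 96-well plates for 48 hours; endpoints were derived by simple linear interpolation of the resulting dose-response curve. TGI: concentration producing complete growth inhibition.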
# Experiments:
# Assay in all cases: NCI tumour cell line growth inhibition, 48 h
# SNB-78 CNS = tested on: SNB-78 CNS
# M19-MEL melanoma = tested on: M19-MEL melanoma
# HOP-18 NSCLC = tested on: HOP-18 NSCLC
# P388/ADR leukemia = tested on: P388/ADR leukemia
# SN12K1 renal = tested on: SN12K1 renal
# P388 leukemia = tested on: P388 leukemia
SMILES,TGI (SNB-78 CNS),TGI (M19-MEL melanoma),TGI (HOP-18 NSCLC),TGI (P388/ADR leukemia),TGI (SN12K1 renal),TGI (P388 leukemia)
Cc1[nH]nc(N)c1C(N)=O,> 100 µM,,,,,
OC1CCOc2ccccc21 (centres undefined),,> 100 µM,> 100 µM,,,
CC1CCC2(C(=O)O)CCC3(C)C(=CCC4C5(C)CCC(O)C(C)(C)C5CCC43C)C2C1C (centres undefined),29.3 µM,18.9 µM,34.4 µM,17.8 µM,12.9 µM,9.48 µM
CNC(=O)SCC(N)C(=O)O (centres undefined),> 100 µM,,> 100 µM,58 µM,> 100 µM,39.1 µM
C/C=C/C1=CC(=O)C(O)C1O (centres undefined),173 µM,113 µM,27.1 µM,113 µM,84.2 µM,141 µM
COC1C=COC2(C)Oc3c(C)c(O)c4c(O)c(c(/C=N/N5CCN(N)CC5)c(O)c4c3C2=O)NC(=O)C(C)=CC=CC(C)C(O)C(C)C(O)C(C)C(OC(C)=O)C1C (centres undefined),> 100 µM,> 100 µM,,,,
CC1(C)Cc2c(C#N)c(N)c3c(c2CO1)C(=O)OC3=O,,> 100 µM,> 100 µM,,,
